Source: ChEMBL document CHEMBL1201862, “PubChem BioAssay data set” (2004)
Activity calls are given as the source filed them.

Key:
[1] = activation of miR-122 Renilla sensor silencing – cell-based, Huh7 psiCHECK-miR122, Renilla luciferase, cherry-picked, dose response (AID 651956); assay type: functional;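 also: huh7 hepatoma cells stably carrying a psiCHECK-2 miR-122 sensor plasmid; renilla luciferase signal reporting endogenous miR-122 activity after 48 h compound exposure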
[2] = Trypanosoma cruzi growth suppression in host cells – NIH3T3 host cells, beta-gal luminescence, confirmation (AID 2044); assay type: functional, cell-based;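 also: intracellular parasites grown in NIH/3T3 mouse fibroblasts as host cells; luminescent beta-galactosidase reporter signal from transgenic T. cruzi replicating inside host cells; inhibitors lower the luminescence signal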
[3] = NIH3T3 cell viability loss – ATP luminescence, mouse fibroblasts, counter-screen, dose response (AID 2010); assay type: functional, cell-based;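 also: cells exposed to compound for about 90 hours before reading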
[4] = THP-1 cell cytotoxicity, dose response, cytotoxicity control for non-replicating M. tuberculosis project (AID 489025); assay type: functional
[5] = HepG2 cell cytotoxicity, dose response, cytotoxicity control for non-replicating M. tuberculosis project (AID 489018); assay type: functional; conditions: Mycobacterium tuberculosis
[6] = Vero E6 cell cytotoxicity, dose response, cytotoxicity control for non-replicating M. tuberculosis project, secondary assay (AID 492998); assay type: functional, VeroE6; conditions: Vero C1008
[7] = target: T1, Short transient receptor potential channel 4 (Mus musculus, UniProt Q9QUQ5); test: calcium entry via TRPC4 opening agents – cell-based, HEK293 TRPC4/mu-opioid, Fluo-4 calcium, dose response (AID 434937); assay type: functional
T1 sequence (Q9QUQ5 whole entry): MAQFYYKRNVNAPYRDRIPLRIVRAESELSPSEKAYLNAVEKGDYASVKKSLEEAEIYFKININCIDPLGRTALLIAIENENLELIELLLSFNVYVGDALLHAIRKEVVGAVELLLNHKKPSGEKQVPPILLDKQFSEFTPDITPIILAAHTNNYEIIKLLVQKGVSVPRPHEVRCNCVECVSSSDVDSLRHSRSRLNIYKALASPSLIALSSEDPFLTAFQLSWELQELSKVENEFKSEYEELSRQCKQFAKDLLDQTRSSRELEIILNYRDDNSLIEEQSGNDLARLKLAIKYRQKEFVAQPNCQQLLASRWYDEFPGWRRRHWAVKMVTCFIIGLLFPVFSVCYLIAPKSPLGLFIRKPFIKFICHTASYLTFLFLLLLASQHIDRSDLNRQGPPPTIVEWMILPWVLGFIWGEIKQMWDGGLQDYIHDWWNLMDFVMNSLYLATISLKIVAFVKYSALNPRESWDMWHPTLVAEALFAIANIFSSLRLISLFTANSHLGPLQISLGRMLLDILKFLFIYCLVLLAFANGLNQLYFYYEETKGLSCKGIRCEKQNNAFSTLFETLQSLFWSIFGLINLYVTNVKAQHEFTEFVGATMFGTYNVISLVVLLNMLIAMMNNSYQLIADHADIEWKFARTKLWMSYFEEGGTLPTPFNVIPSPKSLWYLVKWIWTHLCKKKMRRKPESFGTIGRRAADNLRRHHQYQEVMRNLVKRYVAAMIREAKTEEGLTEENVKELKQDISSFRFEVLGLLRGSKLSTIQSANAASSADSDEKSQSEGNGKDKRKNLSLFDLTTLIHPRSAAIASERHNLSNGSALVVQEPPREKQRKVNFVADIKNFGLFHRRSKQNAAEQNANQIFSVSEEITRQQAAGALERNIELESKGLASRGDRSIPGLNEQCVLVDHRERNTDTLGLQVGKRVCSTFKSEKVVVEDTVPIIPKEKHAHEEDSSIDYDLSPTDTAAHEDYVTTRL

cells = assay type: functional
[8] = cytotoxicity toward MDA-MB-231 breast cancer cells – cell-based, CellTiter-Glo luminescence, cherry-pick, cytotoxicity control for RAD54 inhibitor project, dose response (AID 651692); assay type: functional
[9] = viability loss in HeLa cells – cytotoxicity control for MgcRacGAP inhibitor project, dose response (AID 624300); assay type: functional
[10] = target: T2, DNA repair and recombination protein RAD54-like (Homo sapiens, UniProt Q92698); test: RAD54 Holliday junction migration blockers – biochemical, fluorescence, cherry-picked samples, dose series, confirmation (AID 651657); assay type: functional
T2 sequence (Q92698 whole entry): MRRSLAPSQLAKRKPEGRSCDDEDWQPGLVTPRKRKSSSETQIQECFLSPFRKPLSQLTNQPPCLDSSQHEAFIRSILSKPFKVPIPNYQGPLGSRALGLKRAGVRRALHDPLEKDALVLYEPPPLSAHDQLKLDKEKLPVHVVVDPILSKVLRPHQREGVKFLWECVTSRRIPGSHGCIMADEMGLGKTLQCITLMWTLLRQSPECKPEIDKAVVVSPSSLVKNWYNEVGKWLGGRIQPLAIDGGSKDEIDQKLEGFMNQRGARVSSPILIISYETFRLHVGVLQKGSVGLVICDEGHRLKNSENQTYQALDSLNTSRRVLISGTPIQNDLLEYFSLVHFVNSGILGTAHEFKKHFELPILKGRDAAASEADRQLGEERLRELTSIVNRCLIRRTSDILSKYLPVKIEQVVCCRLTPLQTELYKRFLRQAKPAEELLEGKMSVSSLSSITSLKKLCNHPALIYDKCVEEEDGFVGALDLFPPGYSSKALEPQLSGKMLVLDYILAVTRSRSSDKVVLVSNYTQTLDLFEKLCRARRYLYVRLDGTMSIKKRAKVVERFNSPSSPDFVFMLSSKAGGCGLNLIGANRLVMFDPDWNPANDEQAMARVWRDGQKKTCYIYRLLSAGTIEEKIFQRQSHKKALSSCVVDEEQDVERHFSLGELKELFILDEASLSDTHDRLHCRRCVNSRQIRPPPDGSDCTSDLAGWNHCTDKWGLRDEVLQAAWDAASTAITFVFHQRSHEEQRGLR

[11] = target: T3, Rac GTPase-activating protein 1 (Homo sapiens, UniProt Q9H0H5); test: blockers of MgcRacGAP-driven Rac1 GTP hydrolysis – biochemical, ADP Hunter fluorescence, primary and confirmatory, confirmation (AID 624330); assay type: functional
T3 sequence (Q9H0H5 whole entry): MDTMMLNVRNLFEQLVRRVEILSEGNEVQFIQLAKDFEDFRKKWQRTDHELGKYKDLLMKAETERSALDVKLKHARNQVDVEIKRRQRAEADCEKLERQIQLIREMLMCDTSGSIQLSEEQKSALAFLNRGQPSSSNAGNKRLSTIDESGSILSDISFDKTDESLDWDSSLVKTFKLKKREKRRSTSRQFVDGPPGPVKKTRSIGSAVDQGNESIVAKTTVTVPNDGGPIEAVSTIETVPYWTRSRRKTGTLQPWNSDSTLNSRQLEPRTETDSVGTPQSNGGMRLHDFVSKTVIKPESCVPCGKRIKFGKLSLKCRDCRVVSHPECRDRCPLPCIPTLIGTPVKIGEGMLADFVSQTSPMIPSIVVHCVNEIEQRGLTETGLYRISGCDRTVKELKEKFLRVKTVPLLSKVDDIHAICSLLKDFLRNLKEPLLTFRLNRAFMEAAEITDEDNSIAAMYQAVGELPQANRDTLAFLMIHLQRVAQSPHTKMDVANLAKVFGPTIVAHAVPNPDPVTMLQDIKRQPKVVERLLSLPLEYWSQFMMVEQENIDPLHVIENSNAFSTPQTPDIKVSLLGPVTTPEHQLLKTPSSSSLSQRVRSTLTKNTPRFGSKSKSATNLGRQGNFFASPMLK

[12] = target: T4, DNA repair protein RAD52 homolog (Homo sapiens, UniProt P43351); assay type: functional, biochemical
T4 sequence (P43351 whole entry): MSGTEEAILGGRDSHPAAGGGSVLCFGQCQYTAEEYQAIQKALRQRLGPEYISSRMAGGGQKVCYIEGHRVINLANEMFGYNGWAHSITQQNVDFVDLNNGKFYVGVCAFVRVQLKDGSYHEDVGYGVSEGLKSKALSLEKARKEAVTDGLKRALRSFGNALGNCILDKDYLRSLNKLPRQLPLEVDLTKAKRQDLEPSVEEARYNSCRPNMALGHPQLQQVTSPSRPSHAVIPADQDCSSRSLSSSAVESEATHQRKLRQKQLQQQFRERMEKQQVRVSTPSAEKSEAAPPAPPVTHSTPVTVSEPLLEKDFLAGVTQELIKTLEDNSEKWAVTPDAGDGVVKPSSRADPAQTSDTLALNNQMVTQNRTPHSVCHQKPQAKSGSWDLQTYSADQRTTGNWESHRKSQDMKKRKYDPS

[13] = target: T5, Sentrin-specific protease 8 (Homo sapiens, UniProt Q96LD8); assay type: functional
T5 sequence (Q96LD8 whole entry): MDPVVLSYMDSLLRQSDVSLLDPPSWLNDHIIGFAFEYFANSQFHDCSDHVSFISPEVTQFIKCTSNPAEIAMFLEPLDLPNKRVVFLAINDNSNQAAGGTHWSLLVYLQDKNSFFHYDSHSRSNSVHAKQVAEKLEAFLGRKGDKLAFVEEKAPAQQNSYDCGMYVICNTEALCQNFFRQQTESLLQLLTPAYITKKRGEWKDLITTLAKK

[14] = target: T5, Sentrin-specific protease 8; assay type: functional; remark: listed apart in the source

C[C@H](CO)N1C[C@H](C)[C@@H](CN(C)Cc2ccc(-c3ccccc3)cc2)Oc2ncc(C#CCN(C)C)cc2C1=O
active: AC50 [1] 20.3 µM

COC(=O)C[C@H]1CC[C@H]2[C@@H](COc3ccc(NC(=O)Nc4c(C)noc4C)cc3C(=O)N2C)O1
active: AC50 [1] 40.4 µM

CCCCN(CC)CCNC(=O)c1cc2c(-c3ccc(Cl)cc3)nn(C)c2s1
active: EC50 [2] 0.809 µM | EC50 [3] 8.44 µM | CC50 [4] 13.7 µM | CC50 [5] 5.62 µM | CC50 [6] 12.9 µM | EC50 [7] 0.211 µM | IC50 (cells) 9.15 µM | AC50 [8] 23.7 µM | CC50 [9] 55.5 µM | AC50 [10] 21.7 µM | IC50 [11] 229 µM | AC50 [12] 6.76 µM

COC(=O)CCCC1=CC2=CC(=O)C(C)(OC(=O)c3cccs3)C(=O)C2=CN1C1CC1 (stereo unspecified)
active: IC50 [13] 17.3 µM | IC50 [14] 7.17 µM
